Values quoted from earlier work as cited in US20050107420A1 (Boehringe Ingelheim Pharma GmbH & Co. KG, priority 2002, published 2005).
Blank lines part the entries; values can stand above or below the compound they belong to.

Tests used:
[1] = test system: catalytic site (Sc) of PDE4
[2] = rat
[3] = in vivo
[4] = test system: PDE4 derived from tumor cells; conditions: read-out: IC50 against a PDE4 derived from tumor cells
tumor cells = conditions: micromolar concentrations
PDE4D isoform = PDE4D isoform (Homo sapiens, UniProt Q08499)
PDE4D isoform, sequence (Q08499 whole entry, canonical isoform): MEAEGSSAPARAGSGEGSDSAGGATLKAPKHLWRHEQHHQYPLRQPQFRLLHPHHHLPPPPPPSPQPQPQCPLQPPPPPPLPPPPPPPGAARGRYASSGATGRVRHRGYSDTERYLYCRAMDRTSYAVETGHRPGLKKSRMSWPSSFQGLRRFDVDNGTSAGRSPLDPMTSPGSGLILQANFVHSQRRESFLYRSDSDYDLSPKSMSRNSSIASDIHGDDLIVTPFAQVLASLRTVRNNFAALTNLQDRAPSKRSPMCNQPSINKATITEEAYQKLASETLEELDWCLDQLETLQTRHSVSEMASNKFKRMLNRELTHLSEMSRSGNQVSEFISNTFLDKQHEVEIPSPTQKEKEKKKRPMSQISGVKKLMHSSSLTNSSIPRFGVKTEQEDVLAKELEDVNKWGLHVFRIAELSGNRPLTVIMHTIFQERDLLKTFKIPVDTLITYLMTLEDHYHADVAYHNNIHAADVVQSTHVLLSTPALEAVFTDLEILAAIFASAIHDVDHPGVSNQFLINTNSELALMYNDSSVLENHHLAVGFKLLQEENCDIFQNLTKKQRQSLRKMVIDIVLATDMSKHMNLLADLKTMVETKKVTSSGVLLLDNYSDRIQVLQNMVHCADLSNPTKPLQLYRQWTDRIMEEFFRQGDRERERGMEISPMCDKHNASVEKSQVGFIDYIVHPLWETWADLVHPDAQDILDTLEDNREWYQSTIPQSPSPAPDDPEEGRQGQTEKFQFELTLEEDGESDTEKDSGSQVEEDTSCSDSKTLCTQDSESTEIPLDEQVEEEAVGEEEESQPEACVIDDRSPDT

[5] = antigen-challenged pig
[6] = test system: TNF release and lymphocyte proliferation; conditions: oral dose of 300 mg
PDE4B mutant enzyme = conditions: alanine for aspartate substitution
[7] = guinea-pig
[8] = in vivo; remark: listed apart in the source
[9] = oral administration, clinical conditions
[10] = not given; remark: listed apart in the source
[11] = human, in vivo

SMILES: COc1ccc([C@H](Cc2ccncc2)c2ccccc2)cc1OC1CCCC1 [CDP840]
late reactions to inhaled allergen (9.5 days oral administration, 15 and 30 mg, patients with bronchial asthma): suppression of late reactions to inhaled allergen
late-phase response in the treatment of asthma (human, in vivo): significant inhibition
potency at the Sc [1]: significantly higher potency at the Sc than does SB-207,499

SMILES: COc1cc2c3c(c1)C(c1ccccc1)=N[C@@H](NC(=O)c1cc4ccccc4cn1)C(=O)N3CC2 [CI-1018]
oral potency, ED50 [2]: 5 mg/kg

SMILES: COc1ccc(C2CNC(=O)NC2)cc1OC1CC2CCC1C2 (centres unmarked) [CP-80,633]
emesis, nausea and vomiting [3]: elicit emesis

SMILES: COc1ccc([C@@H](Cc2ccncc2)c2ccccc2)cc1OC1CCCC1 [CT-1731]
elevation of cAMP, activity relative to enantiomer CDP840 (cAMP): less active

IC50 [4]: 16 nM
SMILES: Clc1nc2c(N3CCCC3)nc(C3CCNCC3)nc2nc1NCc1ccccc1 [Formula (0.1.55)]
inhibition of the growth of tumor cells (tumor cells): inhibit the growth of tumor cells at micromolar concentrations

selectivity for inhibition of the PDE4D isoform (PDE4D isoform): 100 fold
SMILES: O=C(NCc1ccccc1Cl)c1cccnc1Oc1ccc(F)cc1 [Formula (0.1.58)]

potency or selectivity for PDE4D relative to other subtypes, in words (PDE4D isoform): PDE4D selective inhibitor
SMILES: N#Cc1cccc(-c2nc(-c3ccc(C(=O)O)cc3)cc3cccnc23)c1 [Formula (0.1.59)]

SMILES: CCCn1c(=O)c2c(C)nc(CC)n2c2nc(OC)ccc21 [Formula D-22888]
anti-allergic effect [5]: strong anti-allergic affect
rhinorrhea [5]: inhibit rhinorrhea

SMILES: CCNc1ncn(Cc2ccc(OC)c(OC3CCCC3)c2)c2nc(C(C)C)nc1-2 [Formula V-11294A]
TNF levels and lymphocyte proliferation ex vivo [6]: effective in reducing TNF levels and lymphocyte proliferation

SMILES: COc1ccc(C(=O)Nc2c(Cl)cncc2Cl)cc1OC1CCCC1 [RP-73,401]
potency on the mutant PDE4B enzyme (PDE4B mutant enzyme): lose potency
inhibition of antigen-induced airway eosinophilia and PAF- and ozone-induced airway hyper-responsiveness (AHR) [7]: active
inhibition of antigen-induced bronchoalveolar lavage (BAL) eosinophilia [7]: active
inhibition of antigen-induced lung eosinophilia and eosinophil peroxidase (EPO) [7]: active

potency or selectivity for PDE4D relative to other subtypes, in words (PDE4D isoform): more potent against PDE4D
SMILES: O=c1c2cccnc2n(-c2cccc([N+](=O)[O-])c2)c(=O)n1Cc1ccncc1 [RS-25,344]

potency on the mutant PDE4B enzyme (PDE4B mutant enzyme): lose potency
SMILES: COc1ccc(CC2CNC(=O)N2)cc1OC1CCCC1 (centres unmarked) [Ro-20-1724]

SMILES: COc1cc2c(cc1OC)[C@@H]1CN(C)CC[C@@H]1N=C2c1ccc(NC(C)=O)cc1 [benafentrine]
bronchodilation [8]: bronchodilation only when administered by inhalation

SMILES: CSc1ccc(C(=O)c2[nH]c(=O)[nH]c2C)cc1 [enoximone]
mean pulmonary artery pressure [9]: decreases in mean pulmonary artery pressure

SMILES: CC[N+]1(C)[C@@H]2CC(OC(=O)[C@H](CO)c3ccccc3)C[C@H]1[C@@H]1O[C@@H]12 (some centres unmarked) [oxitropium]
change in heart rate, blood pressure, bladder function, intraocular pressure, or pupillary diameter ([10]; inhaled at several times the recommended dose): little or no change

potency on the mutant PDE4B enzyme (PDE4B mutant enzyme): lose potency
SMILES: COc1ccc(C2CNC(=O)C2)cc1OC1CCCC1 (centres unmarked) [rolipram]
stimulation of acid secretion from gastric parietal cells (gastric parietal cells): very potent stimulator

SMILES: Cn1c(=O)c2[nH]cnc2n(C)c1=O [theophylline]
neutrophil counts in the sputum of COPD patients [11]: reduces neutrophil counts

SMILES: CCOc1cc2cc(C(=O)O)sc2cc1OCC [tibenelast]
bronchodilation [8]: Unsatisfactory results

SMILES: C[N+]1(C)C2CC(OC(=O)C(O)(c3cccs3)c3cccs3)CC1C1OC12 (stereo not drawn) [tiotropium, (1α, 2β, 4β, 5α, 7β)-7-[(hydroxydi-2-thienylacetyl)oxy]-9,9-dimethyl-3-oxa-9-azoniatricyclo[3.3.1.0^2,4]nonane bromide]
duration of action ([10]; in vivo): prolonged duration of action

SMILES: CCCOc1ccccc1-c1nc2[nH]nnc2c(=O)[nH]1 [zaprinast]
bronchodilation [8]: Unsatisfactory results

SMILES: COc1cc(-c2ccc(=O)[nH]n2)ccc1OC(F)F [zardaverine]
bronchodilation [8]: only a modest and short-lived bronchodilation
